Laboratory results reported in patent publication US7119229B2 (priority 2001, dated 2006).
pEC50: −log10 of the molar value. Read-outs that look alike come from different tables or passages of the source.

Assays:
TA100 = tested on: TA100
Procedure: (§1) This assay is carried out to test mutagenicity of chemical substances using histidine auxotrophic strains that are one of Salmonella Typhimurium mutants. […] When various mutagens are added to the culture medium, only revertants generated by reverse mutation survive.
(§2) Ames test was carried out using […]. […] After incubation, the number of revertant colonies was counted. 3 plates were prepared for each test and the average was calculated.

TA1535 = settings: TA1525 (so in the source)
Procedure: as §1, §2

[1] = tested on: MES-SA (human uterine sarcoma); experiment: SRB cytotoxicity assay, MES-SA; assay type: cell-based; settings: 72 h, read-out: ED50 MES-SA
Procedure: Human tumor cells, including MCF-7 (human breast adenomatous tumor), MCF-7/DOX (adriamycin resistant cell strain), MRS-SA (human uterine sarcoma), MES-SA/DX5 (adriamycin resistant cell strain), A 549 (human non-small cell lung), SKOV-3 (human ovarian), SKMEL-2 (human melanoma), XF-498 (human CNS), HCT-15 (human colon) were incubated at 37° C. in the presence of 5% CO2 using a DMEM culture medium. The respective cells were seeded into each well of 96-well plates at a concentration of 2×10^3˜5×10^3 cells/well. […] Each cell line of the resultant plates was fixed with trichloroacetic acid (TCA), stained with 0.4% SRB solution and rinsed with 1% acetic acid. Thereafter, the dye was dissolved in 10 mM Tris base to measure the optical density (OD) at 520 nm.

## COc1cc2c(c(OC)c1OC)-c1ccc(OC)c(=O)cc1[C@@H](NC(=O)c1cccc(CO[N+](=O)[O-])c1)CC2 [Compound 6, 3-nitrooxymethyl-N-(1,2,3,10-tetramethoxy-9-oxo-5,6,7,9-tetrahydro-benzo[a]heptarene-7-yl)-benzamide]
TA100; TA100, 317.5 μg/Plate
  Colony/Plate S-9 Mixture (+): 96 Colony/Plate
  Colony/Plate S-9 Mixture (−): 81 Colony/Plate
TA100; TA100, 625 μg/Plate
  Colony/Plate S-9 Mixture (+): 84 Colony/Plate
  Colony/Plate S-9 Mixture (−): 77 Colony/Plate
TA100; TA100, 1250 μg/Plate
  Colony/Plate S-9 Mixture (+): 81 Colony/Plate
  Colony/Plate S-9 Mixture (−): 84 Colony/Plate
TA100; TA100, 2500 μg/Plate
  Colony/Plate S-9 Mixture (+): 77 Colony/Plate
  Colony/Plate S-9 Mixture (−): 88 Colony/Plate
TA100; TA100, 5000 μg/Plate
  Colony/Plate S-9 Mixture (+): 78 Colony/Plate
  Colony/Plate S-9 Mixture (−): 79 Colony/Plate
TA1535; 317.5 μg/Plate
  Colony/Plate S-9 Mixture (+): 14 Colony/Plate
  Colony/Plate S-9 Mixture (−): 14 Colony/Plate
TA1535; 625 μg/Plate
  Colony/Plate S-9 Mixture (+): 12 Colony/Plate
  Colony/Plate S-9 Mixture (−): 18 Colony/Plate
TA1535; 1250 μg/Plate
  Colony/Plate S-9 Mixture (+): 11 Colony/Plate
  Colony/Plate S-9 Mixture (−): 15 Colony/Plate
TA1535; 2500 μg/Plate
  Colony/Plate S-9 Mixture (+): 11 Colony/Plate
  Colony/Plate S-9 Mixture (−): 10 Colony/Plate
TA1535; 5000 μg/Plate
  Colony/Plate S-9 Mixture (+): 9 Colony/Plate
  Colony/Plate S-9 Mixture (−): 13 Colony/Plate
[1]
  pEC50: 9.70
